In US20250325467A1, “COMPOSITIONS FOR PREVENTING OR TREATING SKIN AGING” (ESTETRA SRL, priority 2021, published 2025):
“Also recorded” adds a separate entry of the source.

Legend:
[1] = female, Lister Hooded, rat, in vivo, 0.5 h
Experimental: Tissue distribution was determined in female rats (partially pigmented and non-pigmented) using [^14C]-estetrol.
A group of six female Lister Hooded rats each received a single oral dose of [^14C]-estetrol. At each selected time (see below) one animal was killed (by overdose of CO2) followed by immediate snap freezing in hexane/solid CO2. The carcasses were retained for examination of the tissue distribution of radioactivity using the technique of quantitative whole body autoradiography (QWBA).
Times for analysis were: (0.5, 8, and 24 hours, 7, 14 and 35 days)
Frozen carcasses were subjected to whole-body autoradiography.
Where concentrations are reported, radioactivity was assumed to be associated with [^14C]-estetrol or any metabolic products derived from [^14C]-estetrol. The specific activities of the dosed test compounds were used for the calculation of concentrations in all cases. Recoveries of radioactivity are reported as percentage of administered radioactivity (% dose). Radioactivity concentrations are also reported as pg equivalents/g.

[2] = system: human monocytes; test: Immune cell polarization (qPCR of M1/M2 markers), human monocytes; assay type: cell-based; conditions: activated human monocytes; qPCR markers NOS2, ARG1
Experimental: (§1) Immune cell polarization was evaluated in vitro using markers for M1/TH-1 (NOS2) and M2/TH-2 (ARG1) phenotype with human monocytes and mouse monocytes (BMDM bone marrow derived monocytes).
Human blood was collected under national ethical approval with full informed written patient consent. Freshly isolated human blood was collected in EDTA vacutainer tubes, diluted 1:1 in PBS and gently layered onto histopaque (Merck). Tubes were immediately centrifuged at 100×g for 30 minutes and the whitish buffy layer formed at the histopaque interface aspirated and washed (centrifuged 100×g, 10 minutes) twice with sterile PBS. Untouched classical (CD14++, CD16−) monocytes were isolated from the washed buffy layer cells using the Miltenyi Classical Monocyte Isolation Kit, LS columns and a MidiMACs separator (Miltenyi). Isolated cells were seeded into tissue culture plates and stimulated to differentiate using PMA.
(§2) An experiment was conducted to evaluate the anti-inflammatory effects of E4 or vehicle (negative control). qPCR methodology was used to assess the effects of E2 and E4 on immune cell polarization using well validated marker of pro-inflammatory (NOS2 for MI/TH-1 phenotype) and anti-inflammatory (ARG1 for ME/TH-2 phenotype) activity.

[3] = in humans; unlike other estrogens; cited from earlier work
[4] = system: IL-6 release from NHEKs; test: PMA/A23187-induced IL-6 release from NHEKs (ELISA, normalized to viability); assay type: cell-based, human; conditions: 24 h, vs stimulated EtOH 0.1% condition
Experimental: The Normal Human foreskin-derived Epidermal Keratinocytes (NHEKs, Lonza, 00192906), isolated from foreskin of 3 Caucasian donors, were grown in Epilife medium (Fisher Scientific, M-EPI-500-A) supplemented with Human Keratinocyte Growth Supplement (HKGS, Fisher Scientific, S-001-5) and antibiotics (Gentamycin, Fisher Scientific, 15710-049). The cells were maintained in a humidified incubator at 37° C. with a 5% CO2 atmosphere.
E4 and E2, provided as powder, were dissolved in 100% ethanol at 0.1M. They were then further diluted in ethanol and in culture medium to reach the appropriate concentrations. […] Practically, stock solutions 1000-fold concentrated were prepared in 100% ethanol, aliquoted and stored at −20° C. until cell application.
In order to induce the release of IL-6, NHEKs were exposed for 24 h with phorbol myristate acetate (PMA) at 10 ng/mL, in combination with calcium ionophore A23187 (Sigma Aldrich, C5722) at 2 μM. The treatments with the test or reference items were performed simultaneously with the inflammatory challenge. […] E4 was applied at 10^−4, 10^−5, 10^−6, 10^−7 and 10^−8 M and E2 at 10^−5, 10^−6, 10^−7, 10^−8 and 10^−9 M EtOH at 0.1% was tested as solvent control. Dexamethasone at 10 μM was used as anti-inflammatory reference. At the end of 24 h treatment, supernatants were harvested and stored at −20° C., and cell viability assay was assessed by MTS (see section 5). The kinetics of the treatments is outlined in FIG. 12. All the treatments were performed in triplicates (n=3).
The quantification of the release of inflammatory markers was performed using specific ELISA kits, based on standard curves, according to supplier's specifications. The results were then normalized to the corresponding cell viability (obtained by MTS assay).
The supplier's reference of the kits used for IL-6 quantification is as follows: IL-6, BioTechne, D6050.
At the end of the treatments and culture media collection, the viability of the cells was evaluated using the MTS (3-(4,5-dimethythiazol-2-yl)-5-(3-carboxy-methoxyphenyl)-2-(4-sulfophenyl)-2H-tetrazolium) assay. The effects of the treatments were compared to the untreated control condition and to the solvent control (EtOH 0.1%). The viability data were used in order to normalize the quantities of released inflammatory mediators.
NHEKs were treated as described in the methodology section. The quantification of IL-6 by ELISA was performed from the collected supernatants, following the instructions of the kit provider. Only 3 concentrations of the test items (chosen in accordance with the Sponsor following the results of the viability assay) were assessed in the ELISA.

[5] = system: mouse fibroblasts; test: Fibroblast monolayer scratch assay, mouse fibroblasts; assay type: cell-based; conditions: mouse fibroblasts (female C57Bl/6); 10^−7M; pilot experiments
Experimental: Confluent wells of both primary keratinocytes and fibroblasts were subjected to a highly validated scratch wounding procedure (using a 1 mL sterile filter tip). Post-scratching, cells were rinsed with DPBS and cell-specific media containing treatments added to each well. Cells were imaged on a ptychographic live cell imaging platform (Livecyte 2™, Phasefocus) for 24-48 hours. Automated tracking of individual unlabeled cells will be combined with 3D cell measurements to quantify a range of wound-relevant cell parameters including scratch closure rate.
Dose range finding experiments were conducted with E4 (10^−10M to 10^−6M) and E2 with and without Mitomycin C (MMC, to inhibit proliferation) using vehicle as negative controls.

[6] = system: mouse BMDM (bone marrow derived monocytes); test: Immune cell polarization (qPCR of M1/M2 markers), mouse BMDM; assay type: cell-based; conditions: activated mouse BMDM; qPCR markers NOS2, ARG1
Experimental: as §1, §2

C[C@]12CC[C@@H]3c4ccc(O)cc4CC[C@H]3[C@@H]1[C@@H](O)[C@@H](O)[C@@H]2O [E4, 1,3,5 (10)-estratrien-3,15alpha,16alpha,17beta-tetrol]
radioactivity based on total dose/tissue, non-pigmented skin [1]: 1.1% | radioactivity based on total dose/tissue, pigmented skin [1]: 1.7% | immune cell polarization (monocyte subtype M1/M2) [2]: switch from monocyte subtype M1 (pro-inflammatory) to subtype M2 (healing) | impact on lipid and triglyceride level [3]: very limited impact on lipid and triglyceride level | PMA/A23187-induced IL-6 release ([4]; 10^−5 M): significantly and strongly decreased the release of IL-6; also recorded: strongly and significantly diminished | PMA/A23187-induced IL-6 release ([4]; 10^−6 M): significantly and strongly decreased the release of IL-6; also recorded: strongly and significantly diminished | PMA/A23187-induced IL-6 release ([4]; 10^−7 M): significantly and strongly decreased the release of IL-6; also recorded: strongly and significantly diminished | fibroblast migration / in vitro wound closure [5]: promotes in vitro wound closure to a similar extent as E2; also recorded: as effective as E2 in promoting fibroblast migration | immune cell polarization (monocyte subtype M1/M2) [6]: switch from monocyte subtype M1 (pro-inflammatory) to subtype M2 (healing)
